Measured values from patent US20150196033A1, “PESTICIDAL COMPOSITIONS AND PROCESSES RELATED THERETO” (priority 2012, published 2015).

How the values were obtained:
[1] = tested on: Beet Armyworm (BAW) (Spodoptera exigua); assay: Bioassay on Beet Armyworm (BAW), 128-well diet tray assay; assay type: in vivo; settings: Spodoptera exigua, 168 h, second instar larvae, five to seven days; for mortality at 50 µg/cm2: 50 μg/cm2 on artificial diet, read-out: Rating BAW (% Control (or Mortality))
Procedure: (§1) Certain molecules disclosed in this document were tested against BAW and CEW using procedures described in the following examples. In the reporting of the results, the “BAW & CEW Rating Table” was used (See Table Section).
Bioassays on BAW (Spodoptera exigua)
(§2) Trays were covered with a clear self-adhesive cover and held at 25° C., 14:10 light-dark for five to seven days. Percent mortality was recorded for the larvae in each well; activity in the eight wells was then averaged. The results are indicated in the table entitled “Table ABC: Biological Results” (See Table Section).

[2] = tested on: Corn Earworm (CEW) (Helicoverpa zea); assay: Bioassay on Corn Earworm (CEW), 128-well diet tray assay; assay type: in vivo; settings: Helicoverpa zea, 168 h, second instar larvae, five to seven days; for mortality at 50 µg/cm2: 50 μg/cm2 on artificial diet, read-out: Rating CEW (% Control (or Mortality)); for mortality at 0.5 µg/cm2: 0.5 μg/cm2 on artificial diet, read-out: Rating CEW (% Control (or Mortality)), *Tested at 0.5 μg/cm2
Procedure: as §1
Bioassays on CEW (Helicoverpa zea)
as §2

Cc1ccccc1N/C(=N\C(=O)Nc1ccc(-c2ncn(-c3ccc(OC(F)(F)F)cc3)n2)cc1)SCOC(=O)C(C)C [Molecule A60]
mortality at 50 µg/cm2 [1]: 50 to 100% | mortality at 50 µg/cm2 [2]: 50 to 100%

Cc1cccc(N/C(S)=N/C(=O)Nc2ccc(-c3ncn(-c4ccc(OC(F)(F)F)cc4)n3)cc2)c1C(C)C [Molecule A106]
mortality at 50 µg/cm2 [1]: 50 to 100% | mortality at 0.5 µg/cm2 [2]: 50 to 100%

CC(C)c1ccccc1NC(=O)NC(=O)Nc1ccc(-c2ncn(-c3ccc(OC(F)(F)F)cc3)n2)cc1 [Molecule A13, 1-(2-isopropylphenyl)-3-[[4-[1-[4-(trifluoromethoxy)phenyl]-1,2,4-triazol-3-yl]phenyl]carbamoyl]urea]
mortality at 50 µg/cm2 [1]: 50 to 100% | mortality at 50 µg/cm2 [2]: 50 to 100%

CC(C)c1ccccc1N1C(=O)CS/C1=N\C(=O)Nc1ccc(-c2ncn(-c3ccc(OC(F)(F)C(F)(F)F)cc3)n2)cc1 [Molecule A115]
mortality at 50 µg/cm2 [1]: 50 to 100% | mortality at 0.5 µg/cm2 [2]: 50 to 100%

COc1ccc(N/C(=N/C(=O)Nc2ccc(-c3ncn(-c4ccc(OC(F)(F)F)cc4)n3)cc2)SCS[C@@H]2O[C@@H](C)[C@H](OC)[C@@H](OC)[C@H]2OC)c(C)c1 [Molecule A10, (Z)-(((2S,3R,4R,5S,6S)-3,4,5-Trimethoxy-6-methyltetrahydro-2H-pyran-2-yl)thio)methyl N-(4-methoxy-2-methylphenyl)-N′-((4-(1-(4-(trifluoromethoxy)phenyl)-1H-1,2,4-triazol-3-yl)phenyl)carbamoyl) carbamimidothioate]
mortality at 50 µg/cm2 [1]: 50 to 100% | mortality at 50 µg/cm2 [2]: 50 to 100%

CC(C)c1ccccc1N/C(S)=N/C(=O)Nc1ccc(-c2ncn(-c3ccc(OC(F)(F)F)cc3)n2)cc1 [Molecule A48]
mortality at 50 µg/cm2 [1]: 50 to 100% | mortality at 50 µg/cm2 [2]: 50 to 100%

CC(C)(C)c1ccccc1N/C(S)=N/C(=O)Nc1ccc(-c2ncn(-c3ccc(OC(F)(F)F)cc3)n2)cc1 [Molecule A67]
mortality at 50 µg/cm2 [1]: 50 to 100% | mortality at 0.5 µg/cm2 [2]: 50 to 100%

Cc1cccc(C)c1N1CC(C)CS/C1=N\C(=O)Nc1ccc(-c2ncn(-c3ccc(OC(F)(F)F)cc3)n2)cc1 (centres unmarked) [Molecule A39]
mortality at 50 µg/cm2 [1]: 50 to 100% | mortality at 50 µg/cm2 [2]: 50 to 100%

Cc1ccc(N/C(S)=N/C(=O)Nc2ccc(-c3ncn(-c4ccc(OC(F)(F)F)cc4)n3)cc2)c(C(C)C)c1 [Molecule A84]
mortality at 50 µg/cm2 [1]: 50 to 100% | mortality at 0.5 µg/cm2 [2]: 50 to 100%

N#C/C(C(=O)Nc1ccc(-c2ncn(-c3ccc(OC(F)(F)F)cc3)n2)cc1)=C(/S)Nc1ccccc1-c1ccccc1 [Molecule A27, (Z)-3-([1,1′-Biphenyl]-2-ylamino)-2-cyano-3-mercapto-N-(4-(1-(4-(trifluoromethoxy)phenyl)-1H-1,2,4-triazol-3-yl)phenyl)acrylamide]
mortality at 50 µg/cm2 [1]: 0% | mortality at 50 µg/cm2 [2]: 0 to 50%

Cc1c(F)cccc1N1C(=O)CS/C1=N\C(=O)Nc1ccc(-c2ncn(-c3ccc(OC(F)(F)F)cc3)n2)cc1 [Molecule A93]
mortality at 50 µg/cm2 [1]: 50 to 100% | mortality at 0.5 µg/cm2 [2]: 50 to 100%

Cc1cc(C)c(N2/C(=N/C(=O)Nc3ccc(-c4ncn(-c5ccc(OC(F)(F)F)cc5)n4)cc3)SCC2C)c(C)c1 (centres unmarked) [Molecule A40]
mortality at 12.5 µg/cm2 ([1]; 12.5 μg/cm2 on artificial diet, read-out: Rating BAW (% Control (or Mortality)), **Tested at 12.5 μg/cm2): 50 to 100% | mortality at 12.5 µg/cm2 ([2]; 12.5 μg/cm2 on artificial diet, read-out: Rating CEW (% Control (or Mortality)), **Tested at 12.5 μg/cm2): 50 to 100%

O=C(/N=C1\SCC(=O)N1c1ccccc1C(F)(F)F)Nc1ccc(-c2ncn(-c3ccc(OC(F)(F)F)cc3)n2)cc1 [Molecule A128]
mortality at 0.5 µg/cm2 ([1]; 0.5 μg/cm2 on artificial diet, read-out: Rating BAW (% Control (or Mortality)), *Tested at 0.5 μg/cm2): 50 to 100% | mortality at 0.5 µg/cm2 [2]: 50 to 100%

Cc1cccc(C)c1N/C(S)=C/C(=O)Nc1ccc(-c2ncn(-c3ccc(OC(F)(F)F)cc3)n2)cc1 [Molecule A23, 3-((2,6-dimethylphenyl)amino)-3-thioxo-N-(4-(1-(4-(trifluoromethoxy)phenyl)-1H-1,2,4-triazol-3-yl)phenyl)propanamide]
mortality at 50 µg/cm2 [1]: 50 to 100% | mortality at 50 µg/cm2 [2]: 50 to 100%

CC(C)C(=O)OCS/C(=N\C(=O)Nc1ccc(-c2ncn(-c3ccc(OC(F)(F)F)cc3)n2)cc1)Nc1ccccc1C(C)C [Molecule A5, (Z)-((N-(2-Isopropylphenyl)-N′-((4-(1-(4-(trifluoromethoxy)phenyl)-1H-1,2,4-triazol-3-yl)phenyl)carbamoyl)carbamimidoyl)thio)methyl isobutyrate]
mortality at 50 µg/cm2 [1]: 50 to 100% | mortality at 50 µg/cm2 [2]: 50 to 100%

O=C(/N=C1\SCC(=O)N1c1ccc(Cl)cc1Cl)Nc1ccc(-c2ncn(-c3ccc(OC(F)(F)F)cc3)n2)cc1 [Molecule A92]
mortality at 50 µg/cm2 [1]: 50 to 100% | mortality at 0.5 µg/cm2 [2]: 50 to 100%

CC(C)C(=O)OCS/C(=N/C(=O)Nc1ccc(-c2ncn(-c3ccc(OC(F)(F)F)cc3)n2)cc1)Nc1c(Cl)cccc1Cl [Molecule A58]
mortality at 50 µg/cm2 [1]: 50 to 100% | mortality at 50 µg/cm2 [2]: 50 to 100%

Cc1ccc(Cl)cc1N/C(S)=N/C(=O)Nc1ccc(-c2ncn(-c3ccc(OC(F)(F)F)cc3)n2)cc1 [Molecule A72]
mortality at 50 µg/cm2 [1]: 50 to 100% | mortality at 0.5 µg/cm2 [2]: 50 to 100%

Cc1ccc(Cl)cc1N1C(=O)CS/C1=N\C(=O)Nc1ccc(-c2ncn(-c3ccc(OC(F)(F)F)cc3)n2)cc1 [Molecule A76]
mortality at 50 µg/cm2 [1]: 50 to 100% | mortality at 0.5 µg/cm2 [2]: 50 to 100%

CCc1cccc(C)c1N1C(=O)CS/C1=N\C(=O)Nc1ccc(-c2ncn(-c3ccc(OC(F)(F)F)cc3)n2)cc1 [Molecule A103]
mortality at 50 µg/cm2 [1]: 50 to 100% | mortality at 0.5 µg/cm2 [2]: 50 to 100%

CCc1ccccc1N/C(=N\C(=O)Nc1ccc(-c2ncn(-c3ccc(OC(F)(F)F)cc3)n2)cc1)SCOC(=O)C(C)C [Molecule A57]
mortality at 50 µg/cm2 [1]: 50 to 100% | mortality at 50 µg/cm2 [2]: 50 to 100%

CCC(C)c1ccccc1N/C(=N\C(=O)Nc1ccc(-c2ncn(-c3ccc(OC(F)(F)F)cc3)n2)cc1)SCOC(=O)C(C)C (centres unmarked) [Molecule A54]
mortality at 50 µg/cm2 [1]: 50 to 100% | mortality at 50 µg/cm2 [2]: 50 to 100%

Cc1cc(C)c(-n2c(C)cs/c2=N\C(=O)Nc2ccc(-c3ncn(-c4ccc(OC(F)(F)F)cc4)n3)cc2)c(C)c1 [Molecule A43, (Z)-1-(3-mesityl-4-methylthiazol-2(3H)-ylidene)-3-(4-(1-(4-(trifluoromethoxy)phenyl)-1H-1,2,4-triazol-3-yl)phenyl)urea]
mortality at 50 µg/cm2 [1]: 0% | mortality at 50 µg/cm2 [2]: 50 to 100%

Cc1ccc(F)c(N/C(S)=N/C(=O)Nc2ccc(-c3ncn(-c4ccc(OC(F)(F)F)cc4)n3)cc2)c1 [Molecule A89]
mortality at 50 µg/cm2 [1]: 50 to 100% | mortality at 0.5 µg/cm2 [2]: 50 to 100%

Cc1cc(C)c(N/C(S)=N/C(=O)Nc2ccc(-c3ncn(-c4ccc(OC(F)(F)F)cc4)n3)cc2)c(C)c1 [Molecule A49]
mortality at 50 µg/cm2 [1]: 50 to 100% | mortality at 50 µg/cm2 [2]: 50 to 100%

COc1cc(C)c(N/C(S)=N/C(=O)Nc2ccc(-c3ncn(-c4ccc(OC(F)(F)F)cc4)n3)cc2)c(C)c1 [Molecule A50]
mortality at 50 µg/cm2 [1]: 50 to 100% | mortality at 50 µg/cm2 [2]: 50 to 100%

COc1ccc(Cl)cc1N1C(=O)CS/C1=N\C(=O)Nc1ccc(-c2ncn(-c3ccc(OC(F)(F)F)cc3)n2)cc1 [Molecule A111]
mortality at 50 µg/cm2 [1]: 50 to 100% | mortality at 0.5 µg/cm2 [2]: 50 to 100%

O=C(/N=C(\S)Nc1ccccc1C1CC1)Nc1ccc(-c2ncn(-c3ccc(OC(F)(F)F)cc3)n2)cc1 [Molecule A63]
mortality at 50 µg/cm2 [1]: 50 to 100% | mortality at 0.5 µg/cm2 [2]: 50 to 100%

CC(C)c1ccccc1N1C(=O)CS/C1=N\C(=O)Nc1ccc(-c2ncn(-c3ccc(OC(F)(F)F)cc3)n2)cc1 [Molecule A19, (Z)-1-(3-(2-isopropylphenyl)-4-oxothiazolidin-2-ylidene)-3-(4-(1-(4-(trifluoromethoxy)phenyl)-1H-1,2,4-triazol-3-yl)phenyl)urea]
mortality at 50 µg/cm2 [1]: 50 to 100% | mortality at 50 µg/cm2 [2]: 50 to 100%

Cc1ccc(N2C(=O)CS/C2=N\C(=O)Nc2ccc(-c3ncn(-c4ccc(OC(F)(F)F)cc4)n3)cc2)c(C(C)C)c1 [Molecule A88]
mortality at 50 µg/cm2 [1]: 50 to 100% | mortality at 0.5 µg/cm2 [2]: 50 to 100%

CC(C)c1cc(F)ccc1N1C(=O)CS/C1=N\C(=O)Nc1ccc(-c2ncn(-c3ccc(OC(F)(F)F)cc3)n2)cc1 [Molecule A117]
mortality at 50 µg/cm2 [1]: 50 to 100% | mortality at 0.5 µg/cm2 [2]: 50 to 100%

Cc1cc(C)c(N2CC(C)CS/C2=N\C(=O)Nc2ccc(-c3ncn(-c4ccc(OC(F)(F)F)cc4)n3)cc2)c(C)c1 (centres unmarked) [Molecule A41]
mortality at 50 µg/cm2 [1]: 50 to 100% | mortality at 50 µg/cm2 [2]: 50 to 100%

CCCc1ccccc1N/C(S)=N/C(=O)Nc1ccc(-c2ncn(-c3ccc(OC(F)(F)F)cc3)n2)cc1 [Molecule A64]
mortality at 50 µg/cm2 [1]: 50 to 100% | mortality at 0.5 µg/cm2 [2]: 50 to 100%

CC(C)c1ccc(F)cc1N1C(=O)CS/C1=N\C(=O)Nc1ccc(-c2ncn(-c3ccc(OC(F)(F)F)cc3)n2)cc1 [Molecule A86]
mortality at 50 µg/cm2 [1]: 50 to 100% | mortality at 0.5 µg/cm2 [2]: 50 to 100%

Cc1ccccc1NC(=O)NC(=O)Nc1ccc(-c2ncn(-c3ccc(OC(F)(F)F)cc3)n2)cc1 [Molecule A51]
mortality at 50 µg/cm2 [1]: 50 to 100% | mortality at 50 µg/cm2 [2]: 50 to 100%

CC(C)c1ccccc1N1C(=O)CS/C1=C\C(=O)Nc1ccc(-c2ncn(-c3ccc(OC(F)(F)F)cc3)n2)cc1 [Molecule A24, (Z)-2-(3-(2-isopropylphenyl)-4-oxothiazolidin-2-ylidene)-N-(4-(1-(4-(trifluoromethoxy)phenyl)-1H-1,2,4-triazol-3-yl)phenyl)acetamide]
mortality at 50 µg/cm2 [1]: 50 to 100% | mortality at 50 µg/cm2 [2]: 50 to 100%

CC(C)n1nccc1N1C(=O)CS/C1=N\C(=O)Nc1ccc(-c2ncn(-c3ccc(OC(F)(F)F)cc3)n2)cc1 [Molecule A121]
mortality at 50 µg/cm2 [1]: 50 to 100% | mortality at 0.5 µg/cm2 [2]: 50 to 100%
